Here are results for twelve compounds from PubChem BioAssay (NCI).

“And” between values parts separate entries of the source, which are not always exact repeats. Identical values can stand only once.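 Where inhibition never reached the appropriate level, the endpoint shown equals the highest concentration tested. Otherwise, values were interpolated linearly from a five-concentration, 48-hour dose response in 96-well plates. At the GI50, growth is halved. The concentration for full growth arrest is given as TGI.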 Where only a bound is given, the exact number is not on record here.

Among the test systems are HCT-15 colon; SW-620 colon; SNB-19 CNS; MOLT-4 leukemia; HT29 colon; UO-31 renal; M19-MEL melanoma; DMS 114 small cell lung; KM20L2 colon; LXFL 529 NSCLC; DMS 273 small cell lung.
Experiment in all cases: inhibition of tumour cell growth, NCI panel, 48 h

Consider `Nc1nc(Cl)c2ncn(Cc3ccc(C45CC6CC(CC(C6)C4)C5)c(OCc4cc(F)c(F)cc4F)c3)c2n1`, for which the GI50 was 3570 nM with HCT-15 colon; 2140 nM in the assay on SW-620 colon; 6.48 µM in the assay on SNB-19 CNS; 837 nM with MOLT-4 leukemia; 3450 nM with HT29 colon; 4540 nM in the assay with UO-31 renal. The TGI in the assay with HCT-15 colon is 14.1 µM; in the assay on SW-620 colon it was 20.5 µM; with SNB-19 CNS it was 46.6 µM; in the assay on MOLT-4 leukemia, 2.71 µM; in the assay with HT29 colon, 22.7 µM; in the assay on UO-31 renal, 19.4 µM.

As for `COC(=O)c1ccc(NC(N)=NCCC(C)(C)c2ccc(C(F)(F)F)cc2)nc1`, the GI50 in the assay with HCT-15 colon was 1990 nM; in the assay on SW-620 colon, 2030 nM; with SNB-19 CNS it was 3.3 µM; in the assay with MOLT-4 leukemia, 1880 nM; in the assay on HT29 colon, 2550 nM; with UO-31 renal it was 2900 nM. For the same compound, the TGI in the assay on HCT-15 colon is 5.12 µM; in the assay on SW-620 colon, 4.19 µM; in the assay on SNB-19 CNS it was 11.5 µM; in the assay on MOLT-4 leukemia it was 7.33 µM; in the assay with HT29 colon it was 6.83 µM; in the assay with UO-31 renal it was 15.6 µM.

Regarding `CO[C@H]1C(=O)[C@]2(C)[C@@H](OC)C[C@H]3OC[C@@]3(OC(C)=O)[C@H]2[C@H](OC(=O)c2ccccc2)[C@]2(O)C[C@H](OC(=O)[C@H](O)[C@@H](NC(=O)OC(C)(C)C)c3ccccc3)C(C)=C1C2(C)C`, the GI50 in the assay with HCT-15 colon was less than 10 nM; in the assay on SW-620 colon, less than 10 nM; in the assay with SNB-19 CNS, less than 0.0134 µM; in the assay with MOLT-4 leukemia it was less than 11.4 nM; in the assay on HT29 colon, less than 10 nM; in the assay on UO-31 renal, less than 10 nM. The TGI with HCT-15 colon was 56 µM; in the assay with SW-620 colon, more than 100 µM; in the assay on SNB-19 CNS, more than 100 µM; with MOLT-4 leukemia, 27.8 µM; in the assay on HT29 colon it was 11.5 µM; in the assay with UO-31 renal, 54.3 µM.

As for `Oc1cn(-c2ccc(Cl)cc2)nc1-c1n[nH]c(=S)n1-c1ccc(F)cc1`, the GI50 is 11300 nM with HCT-15 colon; 22800 nM in the assay with SW-620 colon; 61.9 µM with SNB-19 CNS; 14700 nM with MOLT-4 leukemia; 43200 nM with HT29 colon; 25000 nM in the assay on UO-31 renal. Further, the TGI was more than 100 µM in the assay with HCT-15 colon; 78.3 µM with SW-620 colon; more than 100 µM in the assay with SNB-19 CNS; more than 100 µM with MOLT-4 leukemia; more than 100 µM in the assay on HT29 colon; more than 100 µM in the assay with UO-31 renal.

As to `CCc1ccc(Oc2c(-c3ccc(OCc4ccc(Cl)cc4)cc3O)nn(C)c2C(F)(F)F)cc1`, the GI50 is 365 nM in the assay with HCT-15 colon; 382 nM with SW-620 colon; 0.591 µM with SNB-19 CNS; 565 nM in the assay with MOLT-4 leukemia; 580 nM in the assay with HT29 colon; 432 nM with UO-31 renal. The TGI amounted to 1.45 µM with HCT-15 colon; 1.76 µM with SW-620 colon; 2.14 µM in the assay on SNB-19 CNS; 2.93 µM with MOLT-4 leukemia; 2.11 µM in the assay with HT29 colon; 1.63 µM with UO-31 renal.

Regarding `CC(=O)Nc1cccc(C#Cc2cncnc2Nc2ccc(OCc3cccc(F)c3)c(Cl)c2)c1`, the GI50 in the assay with HCT-15 colon was 7410 nM; in the assay with SW-620 colon, 17900 nM; with SNB-19 CNS it was 24.6 µM; with MOLT-4 leukemia it was 6820 nM; in the assay on HT29 colon, 7890 nM; in the assay on UO-31 renal, 3550 nM. For the same compound, the TGI in the assay on HCT-15 colon, with SW-620 colon, with SNB-19 CNS, in the assay with MOLT-4 leukemia, with HT29 colon and with UO-31 renal was more than 25 µM in each case.

Take `O=C(O)c1ccccc1NCn1nc(-c2ccccc2O)oc1=S`: the GI50 was 24600 nM in the assay on HCT-15 colon; 33800 nM in the assay on SW-620 colon; more than 100 µM with SNB-19 CNS; 9980 nM in the assay with MOLT-4 leukemia; 34900 nM with HT29 colon; more than 100000 nM with UO-31 renal. In addition, the TGI with HCT-15 colon is 65.3 µM; in the assay on SW-620 colon it was more than 100 µM; in the assay with SNB-19 CNS it was more than 100 µM; with MOLT-4 leukemia it was 30 µM; in the assay on HT29 colon it was more than 100 µM; in the assay on UO-31 renal, more than 100 µM.

For `COc1ccc(-c2cnc(-c3ccncc3-c3cccc(OC)c3)o2)cc1`, the GI50 in the assay on HCT-15 colon was 47.3 nM; in the assay with SW-620 colon it was 38.3 nM; in the assay with SNB-19 CNS, 0.0451 µM; with MOLT-4 leukemia it was 61.7 nM; in the assay with HT29 colon, 33 nM; in the assay with UO-31 renal, 89.6 nM. Moreover, the TGI in the assay with HCT-15 colon was 14.5 µM; in the assay on SW-620 colon, 19.3 µM; with SNB-19 CNS, 19.5 µM; with MOLT-4 leukemia it was 17.2 µM; in the assay with HT29 colon, 10.3 µM; with UO-31 renal it was 14.2 µM.

For `CC(=O)C1(C(=O)C(=[N+]=[N-])S(=O)(=O)c2ccccc2)CC1`, the TGI in the assay on HCT-15 colon, with SW-620 colon, in the assay on SNB-19 CNS, with MOLT-4 leukemia, with HT29 colon and with UO-31 renal was more than 100 µM each time.

For the compound `OC1=CN=C(c2ccccc2)Oc2ccccc21`, the TGI in the assay on HCT-15 colon, in the assay on M19-MEL melanoma, in the assay on DMS 114 small cell lung, in the assay with KM20L2 colon, in the assay on SW-620 colon and with LXFL 529 NSCLC was more than 100 µM throughout. The TGI in the assay with SNB-19 CNS, in the assay on DMS 273 small cell lung, in the assay with MOLT-4 leukemia, in the assay with HT29 colon and in the assay on UO-31 renal was more than 100 µM throughout.

Turning to `CCOC(=O)c1cc(C(=O)c2ccc(OC)c(OC)c2)n2c1ccc1ccc3cccnc3c12`, the GI50 is 1250 nM in the assay with HCT-15 colon; 930 nM with SW-620 colon; 5.07 µM in the assay with SNB-19 CNS; 4530 nM in the assay on MOLT-4 leukemia; 1420 nM with HT29 colon; 891 nM with UO-31 renal. Besides, the TGI in the assay on HCT-15 colon was more than 100 µM; with SW-620 colon, more than 100 µM; with SNB-19 CNS, more than 100 µM; with MOLT-4 leukemia it was more than 100 µM; in the assay with HT29 colon, 23 µM; with UO-31 renal it was more than 100 µM.

As to `COc1cccc(-c2cc(=O)c3cc(N4CCN(C)CC4)ccc3[nH]2)c1`, the GI50 in the assay on HCT-15 colon was 2440 nM; with SW-620 colon it was 755 nM; in the assay with MOLT-4 leukemia, 2060 nM; in the assay with HT29 colon it was 1780 nM. In addition, the TGI was more than 100 µM in the assay on SW-620 colon; 8.41 µM with SNB-19 CNS; 7.21 µM in the assay on MOLT-4 leukemia; 5.68 µM and 5.83 µM in the assay on HT29 colon; more than 100 µM with UO-31 renal.
